# Reference: patent publication US20260021167A1, “COMPOSITIONS AND METHODS FOR TREATING OR PREVENTING NEURODEGENERATIVE DISEASES” (Delaware State University, priority 2022, published 2026)
# How the values were obtained:
# SENP-1 = target: T1, SENP-1 (Rattus norvegicus, UniProt A0A0G2JVG1); assay: Western blot of SENP-1 level in PFF-exposed N27p cells; assay type: cell-based; details: PFF exposure, compared with PFF only
# T1 construct: endogenous in cells; host or cells: N27p (N27 parental) rat dopaminergic cells
# T1 sequence (A0A0G2JVG1 1-672): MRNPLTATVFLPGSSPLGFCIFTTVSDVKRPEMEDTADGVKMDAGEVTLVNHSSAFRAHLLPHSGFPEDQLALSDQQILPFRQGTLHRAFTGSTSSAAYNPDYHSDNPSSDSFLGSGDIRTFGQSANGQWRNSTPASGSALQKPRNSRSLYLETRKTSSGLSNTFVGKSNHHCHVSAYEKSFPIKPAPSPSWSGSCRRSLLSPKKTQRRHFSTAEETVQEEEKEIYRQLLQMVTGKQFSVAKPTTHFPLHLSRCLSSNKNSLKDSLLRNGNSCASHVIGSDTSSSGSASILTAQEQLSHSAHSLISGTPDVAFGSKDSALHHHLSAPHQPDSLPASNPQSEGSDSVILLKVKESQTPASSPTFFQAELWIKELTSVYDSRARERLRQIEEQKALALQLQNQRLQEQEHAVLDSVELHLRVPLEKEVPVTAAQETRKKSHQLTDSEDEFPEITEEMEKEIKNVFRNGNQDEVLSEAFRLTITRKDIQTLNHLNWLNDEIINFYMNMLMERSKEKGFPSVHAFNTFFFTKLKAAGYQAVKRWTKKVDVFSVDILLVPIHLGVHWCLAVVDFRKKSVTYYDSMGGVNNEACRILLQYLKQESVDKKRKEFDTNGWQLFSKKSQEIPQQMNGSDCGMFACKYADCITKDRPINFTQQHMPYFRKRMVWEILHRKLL
# Description: A) The RNA interference suppressed the expression level of SENP-1, which enhanced SUMO-1 level. […] One-Way ANOVA, Dunnett's test was applied for statistical analysis in comparison with PFF only (#). *: p<0.05, **: p<0.01, p<0.001 and n.s.: not significant.
# [1] = test system: phosphorylated α-synuclein; assay: Western blot of phosphorylated α-synuclein in brain tissue extracts of PFF-injected mice; assay type: in vivo, mouse; details: both doses, vs PFF only
# Description: (§1) A mouse model of Parkinson's disease is C57BL/6 male or female mice (50% each) injected with 5 μg of mouse PFF at 12 months old, followed by a treatment below for 6-7 weeks: • 1) without PFF injection, followed by vehicle (control, n=7); • 2) PFF injection, followed by vehicle (PFF only: control, n=8); • 3) PFF injection, followed by daily 10 mg/kg Momordin gavage (n=7-8); • 4) PFF injection, followed by daily 50 mg/kg Momordin gavage (n=7-8).
# Immunoblot Analyses. A total of three protein extractions were performed. In the first extraction, a gentle RIPA buffer containing the low concentration of detergent (25 mM Tris-HCL, 150 mM NaCl, 1% NP-40, 1% sodium deoxycholate and 0.1% SDS) was added with phosphatase inhibitors (100 μL for 10 mL) and 5 mM EDTA. The mixture was sonicated and centrifuged at 14,000 rpm for 10 min. The supernatant was collected for measuring the levels of phosphorylated α-syn, SENP-1 or SUMO-1 conjugated proteins for different groups. […] The primary antibodies pertaining to each protein analyzed were diluted at 1:1000 (p-Ser-129-α-synuclein, Cell signaling; SENP-1, SAB4501345, EMD) and incubated at 4° C. overnight. […] ImageJ was used to analyze specific bands on each blot and measured against the loading control (β-actin) for normalizing each band intensity.
# [2] = test system: phosphorylated α-synuclein; assay: Western blot of phosphorylated α-synuclein in α-synuclein IP tissue samples; assay type: in vivo, mouse; details: PFF-injected mice, vs PFF only
# Description: A) In Western blots, Momordin reversed the toxicity from PFF injection in reducing phospho-α-synuclein and SENP-1 on α-synuclein in the MB and STR. […] A pathological marker, phosphorylated α-synuclein was increased by PFF injection, which was reversed by Momordin treatment in the MB (F) and the STR (G).
# as §1
# protein aggregates = assay: Thioflavin-T protein aggregation in brain sections of PFF-injected mice; assay type: in vivo, mouse
# PFF-injected old mice [3] = assay: Hindlimb clasping in PFF-injected mice; assay type: in vivo, mouse; details: 10 and/or 50 mg/kg oral, vs PFF only
# Description: as §1
# Hindlimb Clasping. This is often characterized by bat-like posture when mice are picked up by the tail, indicating they are experiencing severe motor deficits. A mouse was placed on a horizontal plane and held at 2 cm from the tail tip, then slowly to the height of 10 cm from the surface. A video was recorded for 15 sec for each trial. A total of 3 trials were taken over 3 consecutive days and analyzed for the time in hindlimb clasping by a blinded rater.
# PFF-injected old mice [4] = assay: Grooming in PFF-injected mice; assay type: in vivo, mouse; details: 10 and/or 50 mg/kg oral, vs PFF only
# Description: as §1
# Grooming. Individual pictures of each animal were taken over 3 days and analyzed for grooming capabilities. Additional data were collected over 6 weeks during the gavaging period for PFF-injected mice to monitor whether the mice in all groups performed grooming activities uniformly. The points were averaged at the end of the assessment after the mice were euthanized. The coat conditions of each animal were assessed to correlate motivation and activity levels for each animal. […] The grooming pictures were also analyzed by blinded raters and given a point out of 10, with 1 being a poor/dull coat and 10 being a shiny and healthy-looking coat.
# PFF-injected mice = assay: Behavioral tests overall in PFF-injected mice; assay type: in vivo, mouse; details: 10 or 50 mg/kg oral
# Description: as §1
# Behavioral tests were performed using the methods described in Ghosh et al. (Int J Mol Sci. 2022 Apr. 12; 23 (8): 4262) (FIG. 11A).
# [5] = both 10 and 50 mg/kg oral, PFF-injected mice, vs PFF only
structure (smiles),measurement,setting,value
CC1(C)CC[C@]2(C(=O)O)CC[C@]3(C)C(=CC[C@@H]4[C@@]5(C)CC[C@H](O[C@@H]6O[C@H](C(=O)O)[C@@H](O)[C@H](O[C@@H]7OC[C@@H](O)[C@H](O)[C@H]7O)[C@H]6O)C(C)(C)[C@@H]5CC[C@]43C)[C@@H]2C1 [Momordin lc],level of SENP-1 (Western blot),SENP-1,reduced the level of SENP-1
same,"phosphorylated α-synuclein in the MB (Western blot, tissue extracts)",[1]; midbrain,reversed
same,"phosphorylated α-synuclein in the STR (Western blot, tissue extracts)",[1]; striatum,reversed
same,phosphorylated α-synuclein in the MB (α-synuclein IP),[2]; midbrain,reversed
same,phosphorylated α-synuclein in the STR (α-synuclein IP),[2]; striatum,reversed
same,level of alpha-synuclein accumulation/aggregation in Thioflavin-T staining in various brain regions,"protein aggregates; PFF injection, mouse brains",reduced the level of alpha-synuclein accumulation/aggregation
same,level of protein aggregates (Thioflavin-T) in the SNc,protein aggregates; [5],significantly reduced
same,level of protein aggregates (Thioflavin-T) in the striatum,protein aggregates; [5],significantly reduced
same,hindlimb clasping,PFF-injected old mice [3],reduces hindlimb clasping
same,grooming,PFF-injected old mice [4],improves
same,behavioral / motor deficits derived from PFF injection,PFF-injected mice,improved the behavioral deficits
same,behavioral / motor deficits derived from PFF injection,PFF-injected mice; listed as Momordin,alleviates severe motor deficits
